ChEMBL document CHEMBL1144299, “Quinazolinethiones and quinazolinediones, novel inhibitors of inosine monophosphate dehydrogenase: synthesis and initial structure-activity relationships” (Bioorg Med Chem Lett, 2005)

Tests used:
[1] = molecular target: Inosine-5'-monophosphate dehydrogenase 2 (Homo sapiens, UniProt P12268); experiment: In vitro inhibitory concentration against inosine-5'-monophosphate dehydrogenase
[2] = In vitro concentration required to inhibit peripheral blood mononuclear cell proliferation was determined; format: functional
[3] = In vitro concentration required to inhibit peripheral blood mononuclear cell proliferation; Inactive; format: functional
[4] = Percent inhibition of inosine-5'-monophosphate dehydrogenase was determined at 1 uM concentration; format: functional

COc1cc2[nH]c(=S)n(CCc3ccncc3)c(=O)c2cc1-c1cnco1
IC50 [1]: 13 nM
IC50 [2]: 780 nM

COc1cc2[nH]c(=S)n(CCCn3ccnc3)c(=O)c2cc1-c1cnco1
IC50 [1]: 22 nM
IC50 [2]: 980 nM

COc1cc2[nH]c(=O)n(CCc3c[nH]cn3)c(=O)c2cc1-c1cnco1
IC50 [1]: 47 nM
IC50 [3]: Not Active

COc1cc2[nH]c(=S)n(-c3cccnc3)c(=O)c2cc1-c1cnco1
IC50 [1]: 1710 nM

COc1cc2[nH]c(=S)n(CCc3ccccn3)c(=O)c2cc1-c1cnco1
IC50 [1]: 91 nM
IC50 [2]: 1000 nM

COc1cc2[nH]c(=O)n(CCc3ccncc3)c(=O)c2cc1-c1cnco1
IC50 [1]: 188 nM
IC50 [2]: 1200 nM

COc1cc2[nH]c(=O)n(CCN3CCOCC3)c(=O)c2cc1-c1cnco1
IC50 [1]: 297 nM
IC50 [2]: 9130 nM

COc1cc2[nH]c(=S)n(C(C)C)c(=O)c2cc1-c1cnco1
inhibition [4]: 27%

COc1cc2[nH]c(=O)n(C)c(=O)c2cc1-c1cnco1
IC50 [1]: 104 nM
IC50 [2]: 4000 nM

COc1cc2nc(S)nc(O)c2cc1-c1cnco1
IC50 [1]: 30 nM

COc1cc2[nH]c(=S)n(Cc3ccncc3)c(=O)c2cc1-c1cnco1
IC50 [1]: 100 nM
IC50 [2]: 4100 nM

COc1cc2[nH]c(=S)n(CC(C)(C)C)c(=O)c2cc1-c1cnco1
IC50 [1]: 821 nM

COc1cc2[nH]c(=S)n(C)c(=O)c2cc1-c1cnco1
IC50 [1]: 17 nM
IC50 [2]: 1100 nM

COc1cc2[nH]c(=S)n(CCN3CCOCC3)c(=O)c2cc1-c1cnco1
IC50 [1]: 71 nM
IC50 [2]: 2760 nM

COc1cc2[nH]c(=O)n(CCn3ccnc3)c(=O)c2cc1-c1cnco1
IC50 [1]: 86 nM
IC50 [2]: 2400 nM
